# Test results: PMC6199309, “A therapeutic approach to pantothenate kinase associated neurodegeneration” (Nature Communications, 2018)
# Key:
# Test in all cases: KINOMEscan
# Type in all cases: binding
# Details in all cases: read-out: %Ctrl @ 10000nM
# ACVR1B = target: T1, ACVR1B (Homo sapiens, UniProt P36896)
# T1 construct: purchased DiscoverX KINOMEscan
# PIK3C2G = target: T2, PIK3C2G (Homo sapiens, UniProt O75747)
# T2 construct: purchased DiscoverX KINOMEscan
# KIT-autoinhibited = target: T3, KIT-autoinhibited (Homo sapiens, UniProt P10721)
# T3 construct: purchased DiscoverX KINOMEscan
# TIE2 = target: T4, TIE2 (Homo sapiens, UniProt Q02763)
# T4 construct: purchased DiscoverX KINOMEscan
# STK39 = target: T5, STK39 (Homo sapiens, UniProt Q9UEW8)
# T5 construct: purchased DiscoverX KINOMEscan
# [1] = target: T6, ABL1(H396P)-nonphosphorylated (Homo sapiens, UniProt P00519, H396P)
# T6 construct: purchased DiscoverX KINOMEscan
# PIK3CD = target: T7, PIK3CD (Homo sapiens, UniProt O00329)
# T7 construct: purchased DiscoverX KINOMEscan
# T7 sequence (O00329 whole entry): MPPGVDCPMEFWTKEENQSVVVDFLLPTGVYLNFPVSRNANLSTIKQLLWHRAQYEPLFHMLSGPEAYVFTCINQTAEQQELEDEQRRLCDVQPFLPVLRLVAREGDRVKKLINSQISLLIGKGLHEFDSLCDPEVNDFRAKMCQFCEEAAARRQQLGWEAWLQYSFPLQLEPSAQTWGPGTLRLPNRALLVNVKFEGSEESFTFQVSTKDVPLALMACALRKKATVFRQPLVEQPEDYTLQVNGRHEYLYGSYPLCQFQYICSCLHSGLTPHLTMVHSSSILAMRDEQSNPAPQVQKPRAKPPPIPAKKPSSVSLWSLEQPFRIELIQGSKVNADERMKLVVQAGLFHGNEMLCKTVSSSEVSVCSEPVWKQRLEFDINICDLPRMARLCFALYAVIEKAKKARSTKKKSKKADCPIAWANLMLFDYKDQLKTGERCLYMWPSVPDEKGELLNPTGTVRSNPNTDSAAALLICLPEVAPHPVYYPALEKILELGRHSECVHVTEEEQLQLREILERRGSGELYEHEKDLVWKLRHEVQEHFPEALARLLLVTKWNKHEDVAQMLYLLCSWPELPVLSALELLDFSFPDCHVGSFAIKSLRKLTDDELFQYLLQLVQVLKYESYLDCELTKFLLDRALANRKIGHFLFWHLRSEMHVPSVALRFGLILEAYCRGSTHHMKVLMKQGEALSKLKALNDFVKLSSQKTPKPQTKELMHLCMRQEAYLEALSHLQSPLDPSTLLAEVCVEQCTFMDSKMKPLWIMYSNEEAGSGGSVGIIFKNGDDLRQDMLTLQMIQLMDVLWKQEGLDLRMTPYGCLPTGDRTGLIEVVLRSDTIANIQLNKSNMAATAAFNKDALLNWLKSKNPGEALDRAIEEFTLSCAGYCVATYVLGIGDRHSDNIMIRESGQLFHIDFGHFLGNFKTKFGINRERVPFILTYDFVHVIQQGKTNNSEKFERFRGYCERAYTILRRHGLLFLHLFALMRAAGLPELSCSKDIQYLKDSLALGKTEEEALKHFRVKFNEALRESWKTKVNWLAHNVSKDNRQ
# PAK2 = target: T8, PAK2 (Homo sapiens, UniProt Q13177)
# T8 construct: purchased DiscoverX KINOMEscan
# T8 sequence (Q13177 whole entry): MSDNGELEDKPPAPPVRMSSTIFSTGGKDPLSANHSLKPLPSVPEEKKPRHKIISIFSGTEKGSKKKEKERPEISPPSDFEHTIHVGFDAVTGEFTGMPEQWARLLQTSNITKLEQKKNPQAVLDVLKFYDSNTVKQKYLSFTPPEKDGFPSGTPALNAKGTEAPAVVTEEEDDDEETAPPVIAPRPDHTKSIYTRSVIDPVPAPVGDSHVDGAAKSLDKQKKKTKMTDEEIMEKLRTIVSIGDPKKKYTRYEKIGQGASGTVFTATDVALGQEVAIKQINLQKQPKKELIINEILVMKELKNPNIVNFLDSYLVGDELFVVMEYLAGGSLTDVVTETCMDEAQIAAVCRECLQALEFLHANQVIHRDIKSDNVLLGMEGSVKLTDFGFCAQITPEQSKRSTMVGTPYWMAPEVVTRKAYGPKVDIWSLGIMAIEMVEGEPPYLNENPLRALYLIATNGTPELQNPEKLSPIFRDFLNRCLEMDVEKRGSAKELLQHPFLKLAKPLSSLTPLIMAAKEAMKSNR
# [2] = target: T9, ABL1(F317I)-nonphosphorylated (Homo sapiens, UniProt P00519, F317I)
# T9 construct: purchased DiscoverX KINOMEscan
# CAMK2B = target: T10, CAMK2B (Homo sapiens, UniProt Q13554)
# T10 construct: purchased DiscoverX KINOMEscan
# T10 sequence (Q13554 whole entry): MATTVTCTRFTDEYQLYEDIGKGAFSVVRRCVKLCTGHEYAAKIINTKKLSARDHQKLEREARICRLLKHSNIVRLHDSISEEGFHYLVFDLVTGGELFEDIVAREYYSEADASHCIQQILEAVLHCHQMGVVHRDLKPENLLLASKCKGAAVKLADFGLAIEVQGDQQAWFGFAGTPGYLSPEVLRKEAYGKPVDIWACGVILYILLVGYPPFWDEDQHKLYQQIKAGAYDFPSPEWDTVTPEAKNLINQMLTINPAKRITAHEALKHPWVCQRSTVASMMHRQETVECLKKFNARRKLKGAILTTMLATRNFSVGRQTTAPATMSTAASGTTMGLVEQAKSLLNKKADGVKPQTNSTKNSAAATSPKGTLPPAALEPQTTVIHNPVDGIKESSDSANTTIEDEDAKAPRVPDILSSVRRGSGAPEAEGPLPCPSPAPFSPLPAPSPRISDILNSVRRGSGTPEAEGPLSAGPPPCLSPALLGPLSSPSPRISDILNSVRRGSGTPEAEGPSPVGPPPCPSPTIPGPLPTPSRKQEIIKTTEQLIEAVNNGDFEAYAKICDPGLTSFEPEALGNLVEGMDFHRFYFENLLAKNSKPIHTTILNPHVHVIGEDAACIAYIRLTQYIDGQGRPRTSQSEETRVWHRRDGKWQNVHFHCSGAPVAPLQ
# DCAMKL3 = target: T11, DCAMKL3 (Homo sapiens, UniProt Q9C098)
# T11 construct: purchased DiscoverX KINOMEscan
# T11 sequence (Q9C098 whole entry): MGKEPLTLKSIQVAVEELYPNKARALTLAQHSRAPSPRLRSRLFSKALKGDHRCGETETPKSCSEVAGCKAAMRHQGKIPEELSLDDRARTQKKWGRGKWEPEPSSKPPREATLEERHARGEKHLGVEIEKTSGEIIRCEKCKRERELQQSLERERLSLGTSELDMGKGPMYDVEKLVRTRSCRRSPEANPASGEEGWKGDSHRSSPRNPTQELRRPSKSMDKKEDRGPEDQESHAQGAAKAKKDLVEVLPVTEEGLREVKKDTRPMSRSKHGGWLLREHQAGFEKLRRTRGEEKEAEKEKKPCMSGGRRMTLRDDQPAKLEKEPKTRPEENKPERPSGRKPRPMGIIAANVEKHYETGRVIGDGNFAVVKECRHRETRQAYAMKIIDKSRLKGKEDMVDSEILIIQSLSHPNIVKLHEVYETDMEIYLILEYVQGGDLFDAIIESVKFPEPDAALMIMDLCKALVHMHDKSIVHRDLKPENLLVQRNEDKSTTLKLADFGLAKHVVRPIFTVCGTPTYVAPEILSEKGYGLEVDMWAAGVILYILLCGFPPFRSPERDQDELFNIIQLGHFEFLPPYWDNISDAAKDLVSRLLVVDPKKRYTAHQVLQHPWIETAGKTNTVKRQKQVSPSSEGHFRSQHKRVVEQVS
# SRC = target: T12, SRC (Homo sapiens, UniProt P12931)
# T12 construct: purchased DiscoverX KINOMEscan
# EPHB4 = target: T13, EPHB4 (Homo sapiens, UniProt P54760)
# T13 construct: purchased DiscoverX KINOMEscan
# FES = target: T14, FES (Homo sapiens, UniProt P07332)
# T14 construct: purchased DiscoverX KINOMEscan
# INSRR = target: T15, INSRR (Homo sapiens, UniProt P14616)
# T15 construct: purchased DiscoverX KINOMEscan
# T15 sequence (P14616 27-1297): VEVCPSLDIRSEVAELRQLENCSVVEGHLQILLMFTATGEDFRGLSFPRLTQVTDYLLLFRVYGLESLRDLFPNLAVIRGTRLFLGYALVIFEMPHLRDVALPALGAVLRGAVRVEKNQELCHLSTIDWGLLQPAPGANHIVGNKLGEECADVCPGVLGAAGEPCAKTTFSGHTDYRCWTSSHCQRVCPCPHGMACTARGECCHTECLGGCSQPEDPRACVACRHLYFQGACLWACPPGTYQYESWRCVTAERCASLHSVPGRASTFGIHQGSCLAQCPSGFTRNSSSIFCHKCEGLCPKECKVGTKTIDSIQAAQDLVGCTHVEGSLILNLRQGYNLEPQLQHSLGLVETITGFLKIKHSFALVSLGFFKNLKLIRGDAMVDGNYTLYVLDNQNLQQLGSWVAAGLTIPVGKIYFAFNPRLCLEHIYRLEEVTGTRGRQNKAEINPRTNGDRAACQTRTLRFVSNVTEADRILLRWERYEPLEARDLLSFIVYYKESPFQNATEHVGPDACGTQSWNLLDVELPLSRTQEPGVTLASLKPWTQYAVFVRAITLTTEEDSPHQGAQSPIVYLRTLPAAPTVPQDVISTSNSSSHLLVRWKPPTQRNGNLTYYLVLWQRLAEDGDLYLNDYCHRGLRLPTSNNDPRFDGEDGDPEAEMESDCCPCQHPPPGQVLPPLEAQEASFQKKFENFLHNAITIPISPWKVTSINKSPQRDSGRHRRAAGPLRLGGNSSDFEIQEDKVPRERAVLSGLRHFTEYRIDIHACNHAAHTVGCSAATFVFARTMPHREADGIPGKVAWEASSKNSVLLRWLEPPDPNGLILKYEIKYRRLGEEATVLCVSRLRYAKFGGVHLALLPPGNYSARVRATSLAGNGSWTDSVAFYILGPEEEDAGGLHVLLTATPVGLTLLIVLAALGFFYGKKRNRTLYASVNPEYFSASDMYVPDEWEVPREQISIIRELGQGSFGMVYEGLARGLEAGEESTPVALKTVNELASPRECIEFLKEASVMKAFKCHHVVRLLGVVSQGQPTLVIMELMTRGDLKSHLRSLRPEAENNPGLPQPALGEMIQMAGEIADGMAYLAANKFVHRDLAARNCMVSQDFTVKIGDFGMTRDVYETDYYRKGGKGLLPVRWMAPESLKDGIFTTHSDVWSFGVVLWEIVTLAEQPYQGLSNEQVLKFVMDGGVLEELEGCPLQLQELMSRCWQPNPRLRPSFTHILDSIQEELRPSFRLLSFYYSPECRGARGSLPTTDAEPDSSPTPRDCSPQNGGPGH
# LOK = target: T16, LOK (Homo sapiens, UniProt O94804)
# T16 construct: purchased DiscoverX KINOMEscan
# ANKK1 = target: T17, ANKK1 (Homo sapiens, UniProt Q8NFD2)
# T17 construct: purchased DiscoverX KINOMEscan
# BRAF(V600E) = target: T18, BRAF(V600E) (Homo sapiens, UniProt P15056, V600E)
# T18 construct: purchased DiscoverX KINOMEscan
# IKK-alpha = target: T19, IKK-alpha (Homo sapiens, UniProt O15111)
# T19 construct: purchased DiscoverX KINOMEscan
# RIPK4 = target: T20, RIPK4 (Homo sapiens, UniProt P57078)
# T20 construct: purchased DiscoverX KINOMEscan
# FLT3(N841I) = target: T21, FLT3(N841I) (Homo sapiens, UniProt P36888, N841I)
# T21 construct: purchased DiscoverX KINOMEscan
# ABL1-phosphorylated = target: T22, ABL1-phosphorylated (Homo sapiens, UniProt P00519)
# T22 construct: purchased DiscoverX KINOMEscan
# PHKG1 = target: T23, PHKG1 (Homo sapiens, UniProt Q16816)
# T23 construct: purchased DiscoverX KINOMEscan
# RIPK2 = target: T24, RIPK2 (Homo sapiens, UniProt O43353)
# T24 construct: purchased DiscoverX KINOMEscan
# T24 sequence (O43353 whole entry): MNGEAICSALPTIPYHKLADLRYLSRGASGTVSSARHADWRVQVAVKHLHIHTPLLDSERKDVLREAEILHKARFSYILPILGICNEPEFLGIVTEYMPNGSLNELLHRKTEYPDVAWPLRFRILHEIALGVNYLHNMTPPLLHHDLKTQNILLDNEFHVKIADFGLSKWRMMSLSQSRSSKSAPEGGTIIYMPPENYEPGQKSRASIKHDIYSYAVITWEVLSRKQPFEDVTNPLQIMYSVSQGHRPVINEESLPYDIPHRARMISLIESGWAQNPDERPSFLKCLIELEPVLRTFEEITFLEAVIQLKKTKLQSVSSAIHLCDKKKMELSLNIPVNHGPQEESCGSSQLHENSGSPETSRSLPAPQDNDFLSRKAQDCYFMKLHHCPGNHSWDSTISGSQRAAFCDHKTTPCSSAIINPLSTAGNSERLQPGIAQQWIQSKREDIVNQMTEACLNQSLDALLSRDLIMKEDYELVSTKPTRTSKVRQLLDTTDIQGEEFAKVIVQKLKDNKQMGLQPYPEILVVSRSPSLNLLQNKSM
# PKAC-beta = target: T25, PKAC-beta (Homo sapiens, UniProt P22694)
# T25 construct: purchased DiscoverX KINOMEscan
# MEK4 = target: T26, MEK4 (Homo sapiens, UniProt P45985)
# T26 construct: purchased DiscoverX KINOMEscan
# MAPKAPK2 = target: T27, MAPKAPK2 (Homo sapiens, UniProt P49137)
# T27 construct: purchased DiscoverX KINOMEscan
# PRKCE = target: T28, PRKCE (Homo sapiens, UniProt Q02156)
# T28 construct: purchased DiscoverX KINOMEscan
# EPHB3 = target: T29, EPHB3 (Homo sapiens, UniProt P54753)
# T29 construct: purchased DiscoverX KINOMEscan
# CAMKK1 = target: T30, CAMKK1 (Homo sapiens, UniProt Q8N5S9)
# T30 construct: purchased DiscoverX KINOMEscan
# CSNK1D = target: T31, CSNK1D (Homo sapiens, UniProt P48730)
# T31 construct: purchased DiscoverX KINOMEscan
# DYRK1A = target: T32, DYRK1A (Homo sapiens, UniProt Q13627)
# T32 construct: purchased DiscoverX KINOMEscan
# KIT(D816H) = target: T33, KIT(D816H) (Homo sapiens, UniProt P10721, D816H)
# T33 construct: purchased DiscoverX KINOMEscan
# QSK = target: T34, QSK (Homo sapiens, UniProt Q9Y2K2)
# T34 construct: purchased DiscoverX KINOMEscan
# CHEK2 = target: T35, CHEK2 (Homo sapiens, UniProt O96017)
# T35 construct: purchased DiscoverX KINOMEscan
# [3] = target: T36, ABL1(F317L)-phosphorylated (Homo sapiens, UniProt P00519, F317L)
# T36 construct: purchased DiscoverX KINOMEscan
# LRRK2(G2019S) = target: T37, LRRK2(G2019S) (Homo sapiens, UniProt Q5S007, G2019S)
# T37 construct: purchased DiscoverX KINOMEscan
# EPHA7 = target: T38, EPHA7 (Homo sapiens, UniProt Q15375)
# T38 construct: purchased DiscoverX KINOMEscan
# CAMKK2 = target: T39, CAMKK2 (Homo sapiens, UniProt Q96RR4)
# T39 construct: purchased DiscoverX KINOMEscan
# TEC = target: T40, TEC (Homo sapiens, UniProt P42680)
# T40 construct: purchased DiscoverX KINOMEscan
# PFTK1 = target: T41, PFTK1 (Homo sapiens, UniProt O94921)
# T41 construct: purchased DiscoverX KINOMEscan
# GSK3B = target: T42, GSK3B (Homo sapiens, UniProt P49841)
# T42 construct: purchased DiscoverX KINOMEscan
# EPHA5 = target: T43, EPHA5 (Homo sapiens, UniProt P54756)
# T43 construct: purchased DiscoverX KINOMEscan
smiles,measurement,setting,value
"CC(C)c1ccc(CC(=O)N2CCN(c3ccc(C#N)nn3)CC2)cc1 [PZ-2891, 6-(4-(2-(4-isopropylphenyl)acetyl)piperazin-1-yl)pyridazine-3-carbonitrile]",remaining binding at 10 µM,ACVR1B,97%
same,remaining binding at 10 µM,PIK3C2G,61%
same,remaining binding at 10 µM,KIT-autoinhibited,81%
same,remaining binding at 10 µM,TIE2,97%
same,remaining binding at 10 µM,STK39,70%
same,remaining binding at 10 µM,[1],74%
same,remaining binding at 10 µM,PIK3CD,89%
same,remaining binding at 10 µM,PAK2,44%
same,remaining binding at 10 µM,[2],77%
same,remaining binding at 10 µM,CAMK2B,88%
same,remaining binding at 10 µM,DCAMKL3,84%
same,remaining binding at 10 µM,SRC,97%
same,remaining binding at 10 µM,EPHB4,97%
same,remaining binding at 10 µM,FES,94%
same,remaining binding at 10 µM,INSRR,82%
same,remaining binding at 10 µM,LOK,86%
same,remaining binding at 10 µM,ANKK1,78%
same,remaining binding at 10 µM,BRAF(V600E),100%
same,remaining binding at 10 µM,IKK-alpha,100%
same,remaining binding at 10 µM,RIPK4,81%
same,remaining binding at 10 µM,FLT3(N841I),86%
same,remaining binding at 10 µM,ABL1-phosphorylated,78%
same,remaining binding at 10 µM,PHKG1,88%
same,remaining binding at 10 µM,RIPK2,89%
same,remaining binding at 10 µM,PKAC-beta,95%
same,remaining binding at 10 µM,MEK4,100%
same,remaining binding at 10 µM,MAPKAPK2,88%
same,remaining binding at 10 µM,PRKCE,70%
same,remaining binding at 10 µM,EPHB3,92%
same,remaining binding at 10 µM,CAMKK1,89%
same,remaining binding at 10 µM,CSNK1D,93%
same,remaining binding at 10 µM,DYRK1A,71%
same,remaining binding at 10 µM,KIT(D816H),66%
same,remaining binding at 10 µM,QSK,82%
same,remaining binding at 10 µM,CHEK2,79%
same,remaining binding at 10 µM,[3],100%
same,remaining binding at 10 µM,LRRK2(G2019S),100%
same,remaining binding at 10 µM,EPHA7,92%
same,remaining binding at 10 µM,CAMKK2,87%
same,remaining binding at 10 µM,TEC,79%
same,remaining binding at 10 µM,PFTK1,92%
same,remaining binding at 10 µM,GSK3B,74%
same,remaining binding at 10 µM,EPHA5,88%
